“And” between values parts separate entries of the source, which are not always exact repeats. Equal entries are not always repeated.
Assays:
[1] = test system: MIA rat model of OA; assay: MIA trial 2 histopathology (same doses as dRS test); format: in vivo; parameters: key to Total joint score with matrix / Total joint score w/o matrix: sum of cartilage degeneration, osteophyte and bone scores (± matrix); conditions: group mean
Experimental: Following functional testing in the first and second MIA trials, femurs were fixed in paraformaldehyde, processed, sectioned, stained with hematoxylin and eosin or Safranin O at Premier Laboratory (Longmont, CO, USA), and analyzed by a veterinary pathologist. For MIA trial 1, sections were evaluated for the percentage area of chondrocyte necrosis and/or proteolytic degeneration using a 5-point scale with 0 = none; 1 being <10 %; 2 = 10–30 %; 3 = 30–60 %; 4 = 60–90 %; and 5 being >90 %. Other characteristics of inflammation, proliferation, and integrity of the synovium, subchondral bone, and articular cartilage were scored as normal, minimal, mild, moderate, marked, or increased or decreased when severity was not graded. MIA trial 2 was measured similarly and then cross-checked according to the methods used for MIA trial 3 (see text below).
For MIA trial 3, joints were fixed and toluidine blue–stained sections of the rat knees were comprehensively analyzed from test and control subjects as detailed in Additional file 1. Briefly, a 5-point cartilage matrix score was derived based upon (1) approximate percentage of total loss of articular chondrocytes for each of four articular surfaces, (2) estimated proteoglycan loss (via Safranin O staining), and (3) loss of interstitial matrix. Chondrocyte necrosis and proteolytic degeneration of the femurs were scored on a 5-point scale as in trial 1. A femoral cartilage degeneration score and a three-zone sum of the tibial cartilage degeneration scores (mean of three levels) were also summed to create a total cartilage degeneration score. The mean osteophyte score for each joint was added to this value to create a total joint score with matrix. Other parameters assessed included synovial membrane inflammation and proliferation. Representative images from each group were also collected (see, e.g., Fig. 4 and Additional file 1: Fig. S55, Trial 3).
The histopathology for the first MIA trial was performed by Premier Laboratories (Dr. Michael Hawes, APS, Pathologist). Treatments were masked during the assessment. Chondrocyte necrosis and proteolytic degeneration of the femurs were scored on a 5 point scale with 0 = None; 1 = <10%; […]
proteoglycan content (safranin O staining), synovial membrane inflammation and proliferation, subchondral bone, and articular cartilage (as indicated in Supplementary methods). Characteristics within these categories were scored as normal, minimal, mild, moderate, marked, or +/- when severity was not graded. Slides from Trial 2 were further reviewed by Dr. Bendele using the analytical method described below for the MMT/MCLT model to confirm any conclusions.
For the histopathology of the MIA model in Trial 3, completed by Bolder BioPATH (and Dr.
Bendele), a tolouidine blue stained slide containing both halves of the joint was comprehensively analyzed from test and control subjects. Approximate % of total loss of articular chondrocytes, loss of proteoglycan and loss of collagenous matrix were determined for each articular surface (medial tibial plateau (MTP), lateral tibial plateau (LTP), medial femoral condyle (MFC), and lateral femoral condyle (LFC). Chondrocyte loss was quantified by estimating the area of cartilage in which there were no apparently viable chondrocytes and proteoglycan loss was quantified by estimating differences in intensity of toluidine blue matrix staining. Loss of interstitial matrix was an indication of disruption and diminished type II collagen. Based on the mean % loss for the four surfaces in these parameters, a five point matrix score was utilized with the subchondral bone resorption, subchondral bone sclerosis and osteophyte scores to achieve a total joint score.
(§1) Histopathology MMT/MCLT Model

[2] = test system: MMT/MCLT rat model of OA; assay: MMT/MCLT trial 2 histopathology (same doses); format: in vivo; parameters: key to Tibial cartilage degeneration score, 3-zone total: sum of three tibial zone scores (each on 5-point scale); key to Total joint score w/o femur / Total joint score: sum: cartilage degeneration scores + mean osteophyte score; conditions: for Femoral cartilage degeneration score / Total joint score / Bone score / Depth ratio any matrix change, mean / Depth ratio any matrix change, zone 2 / Tibial cartilage degeneration score, 3-zone total / Tibial cartilage degeneration score, zone 1 / Tibial cartilage degeneration score, zone 2 / Tibial cartilage degeneration score, zone 3 / Tibial cartilage degeneration width, substantial (>50% thickness) / Tibial cartilage degeneration width, total / Tibial osteophyte measure / Tibial osteophyte score / Total joint score w/o femur: mean; for % decrease, bone score / % decrease, depth ratio mean / % decrease, femoral cartilage degeneration score / % decrease, osteophyte measure / % decrease, osteophyte score / % decrease, substantial degeneration width / % decrease, tibial score 3-zone total / % decrease, tibial score zone 1 / % decrease, tibial score zone 3 / % decrease, total degeneration width / % decrease, total joint score / % decrease, total joint score w/o femur / % decrease, depth ratio zone 2 / % decrease, tibial score zone 2: vs saline group
Description: For MMT/MCLT rat knee joints, sections were cut in 200-μm steps; stained with toluidine blue (also with a right and left half per section); and similarly analyzed for cartilage degeneration, proteoglycan loss, collagen damage, and osteophyte formation. Results were averaged across the three sections for an overall semiquantitative score. Regional differences across the tibial plateau were taken into consideration by dividing each section into three zones delineated using an ocular micrometer (outside, middle, and inside). Scores were based on the percentage of area affected within the zone.
Cartilage degeneration in the tibia was scored on a 5-point scale as detailed in the Methods section of Additional file 1. The total extent of degeneration of the tibial plateau was measured (in micrometers) and included an analysis of cell loss, proteoglycan loss, and collagen damage. Significant cartilage degeneration reflecting any degeneration extending through more than 50 % of the cartilage thickness was also measured. Collagen damage across the medial tibial plateau (the most severely affected section of the two halves) was also quantified.
Osteophytes and femoral cartilage degeneration were analyzed as detailed in Additional file 1. Scoring of the osteophytes and categorization into small, medium, and large was performed using an ocular micrometer. The actual osteophyte measurement (tidemark to farthest distance point extending toward the synovium) was also recorded. The femoral cartilage degeneration score and the three-zone sum of the tibial cartilage degeneration scores (mean of three levels) were summed to create a total cartilage degeneration score. The mean osteophyte score for each joint was added to this value to create a total joint score. […]
as §1

[3] = tacrolimus 0.3 mg/kg, other drugs single dose
[4] = tacrolimus 30 ng i.a., clonidine 100 μg/kg s.c.
[5] = i.a., tacrolimus 15 ng, curcumin 30 μg

Structure (SMILES): CC1(C)O[C@@H]2C[C@H]3[C@@H]4C[C@H](F)C5=CC(=O)C=C[C@]5(C)[C@@]4(F)[C@@H](O)C[C@]3(C)[C@]2(C(=O)CO)O1 [Fluocinolone, Fluocinolone Acetonide]
- Bone resorption score [1, 3]: 3.0
- Bone resorption, percent of surface, LFC [1, 3]: 65%
- Bone resorption, percent of surface, LTP [1, 3]: 58%
- Bone resorption, percent of surface, MFC [1, 3]: 38%
- Bone resorption, percent of surface, MTP [1, 3]: 45%
- Bone resorption, percent of surface, mean [1, 3]: 51%
- Cartilage matrix damage score [1, 3]: 3.3 and 3.3 ± 0.8
- Mean of all cartilage loss [1, 3]: 60%
- Osteophyte measure [1, 3]: 600.0 µm
- Osteophyte score [1, 3]: 3.0
- Subchondral bone sclerosis score [1, 3]: 0.0
- Total joint score w/o matrix [1, 3]: 6.0
- Total joint score with matrix [1, 3]: 9.3 and 9.3 ± 2.5
- Femoral cartilage degeneration score ([2]; i.a., tacrolimus 15 ng): 0.8 ± 0.25
- Total joint score ([2]; i.a., tacrolimus 15 ng): 9.80 ± 0.51

Structure (SMILES): C=CC[C@@H]1/C=C(\C)C[C@H](C)C[C@H](OC)[C@H]2O[C@@](O)(C(=O)C(=O)N3CCCC[C@H]3C(=O)O[C@H](/C(C)=C/[C@@H]3CC[C@@H](O)[C@H](OC)C3)[C@H](C)[C@@H](O)CC1=O)[C@H](C)C[C@@H]2OC [Tacrolimus]
- Bone resorption score [1, 3]: 4.3
- Bone resorption, percent of surface, LFC [1, 3]: 88%
- Bone resorption, percent of surface, LTP [1, 3]: 88%
- Bone resorption, percent of surface, MFC [1, 3]: 70%
- Bone resorption, percent of surface, MTP [1, 3]: 94%
- Bone resorption, percent of surface, mean [1, 3]: 85%
- Cartilage matrix damage score [1, 3]: 3.8 and 3.8 ± 0.6
- Mean of all cartilage loss [1, 3]: 69%
- Osteophyte measure [1, 3]: 700.0 µm
- Osteophyte score [1, 3]: 3.5
- Subchondral bone sclerosis score [1, 3]: 0.0
- Total joint score w/o matrix [1, 3]: 7.8
- Total joint score with matrix [1, 3]: 11.5 and 11.5 ± 1.7
- Bone resorption score ([1]; tacrolimus 0.6 mg/kg i.p.): 3.8
- Bone resorption, percent of surface, LFC ([1]; tacrolimus 0.6 mg/kg i.p.): 80%
- Bone resorption, percent of surface, LTP ([1]; tacrolimus 0.6 mg/kg i.p.): 70%
- Bone resorption, percent of surface, MFC ([1]; tacrolimus 0.6 mg/kg i.p.): 63%
- Bone resorption, percent of surface, MTP ([1]; tacrolimus 0.6 mg/kg i.p.): 68%
- Bone resorption, percent of surface, mean ([1]; tacrolimus 0.6 mg/kg i.p.): 70%
- Cartilage matrix damage score ([1]; tacrolimus 0.6 mg/kg i.p.): 3.8 and 3.8 ± 0.6
- Mean of all cartilage loss ([1]; tacrolimus 0.6 mg/kg i.p.): 62%
- Osteophyte measure ([1]; tacrolimus 0.6 mg/kg i.p.): 550.0 µm
- Osteophyte score ([1]; tacrolimus 0.6 mg/kg i.p.): 2.8
- Subchondral bone sclerosis score ([1]; tacrolimus 0.6 mg/kg i.p.): 0.0
- Total joint score w/o matrix ([1]; tacrolimus 0.6 mg/kg i.p.): 6.5
- Total joint score with matrix ([1]; tacrolimus 0.6 mg/kg i.p.): 10.3 and 10.3 ± 2.1
- Bone score ([2]; i.a., tacrolimus 15 ng): 2.60
- Depth ratio any matrix change, mean ([2]; i.a., tacrolimus 15 ng): 0.25
- Depth ratio any matrix change, zone 2 ([2]; i.a., tacrolimus 15 ng): 0.06
- Femoral cartilage degeneration score ([2]; i.a., tacrolimus 15 ng): 0.87 and 0.87 ± 0.36
- Tibial cartilage degeneration score, 3-zone total ([2]; i.a., tacrolimus 15 ng): 4.43
- Tibial cartilage degeneration score, zone 1 ([2]; i.a., tacrolimus 15 ng): 3.37
- Tibial cartilage degeneration score, zone 2 ([2]; i.a., tacrolimus 15 ng): 1.07
- Tibial cartilage degeneration score, zone 3 ([2]; i.a., tacrolimus 15 ng): 0.00
- Tibial cartilage degeneration width, substantial (>50% thickness) ([2]; i.a., tacrolimus 15 ng): 536.67 µm
- Tibial cartilage degeneration width, total ([2]; i.a., tacrolimus 15 ng): 1060.00 µm
- Tibial osteophyte measure ([2]; i.a., tacrolimus 15 ng): 446.67 µm
- Tibial osteophyte score ([2]; i.a., tacrolimus 15 ng): 3.30
- Total joint score ([2]; i.a., tacrolimus 15 ng): 8.60 and 8.60 ± 0.63
- Total joint score w/o femur ([2]; i.a., tacrolimus 15 ng): 7.73
- Bone score [2, 4]: 2.60
- Depth ratio any matrix change, mean [2, 4]: 0.28
- Depth ratio any matrix change, zone 2 [2, 4]: 0.08
- Femoral cartilage degeneration score [2, 4]: 0.80 and 0.8 ± 0.19
- Tibial cartilage degeneration score, 3-zone total [2, 4]: 4.73
- Tibial cartilage degeneration score, zone 1 [2, 4]: 3.50
- Tibial cartilage degeneration score, zone 2 [2, 4]: 1.20
- Tibial cartilage degeneration score, zone 3 [2, 4]: 0.03
- Tibial cartilage degeneration width, substantial (>50% thickness) [2, 4]: 576.67 µm
- Tibial cartilage degeneration width, total [2, 4]: 1090.00 µm
- Tibial osteophyte measure [2, 4]: 457.33 µm
- Tibial osteophyte score [2, 4]: 3.37
- Total joint score [2, 4]: 8.90 and 8.90 ± 0.66
- Total joint score w/o femur [2, 4]: 8.10
- % decrease, width of severe collagen degeneration ([2]; tacrolimus 15 ng i.a.): 86%
- % decrease, width of severe collagen degeneration ([2]; tacrolimus 30 ng i.a.): 87%
- % decrease, bone score ([2]; i.a., tacrolimus 15 ng): 19%
- % decrease, depth ratio mean ([2]; i.a., tacrolimus 15 ng): 23%
- % decrease, femoral cartilage degeneration score ([2]; i.a., tacrolimus 15 ng): 19%
- % decrease, osteophyte measure ([2]; i.a., tacrolimus 15 ng): 5%
- % decrease, osteophyte score ([2]; i.a., tacrolimus 15 ng): 7%
- % decrease, substantial degeneration width ([2]; i.a., tacrolimus 15 ng): 17%
- % decrease, tibial score 3-zone total ([2]; i.a., tacrolimus 15 ng): 21%
- % decrease, tibial score zone 1 ([2]; i.a., tacrolimus 15 ng): 10%
- % decrease, tibial score zone 3 ([2]; i.a., tacrolimus 15 ng): 100%
- % decrease, total degeneration width ([2]; i.a., tacrolimus 15 ng): 12%
- % decrease, total joint score ([2]; i.a., tacrolimus 15 ng): 16%
- % decrease, total joint score w/o femur ([2]; i.a., tacrolimus 15 ng): 16%
- % decrease, depth ratio zone 2 [2, 5]: 59%
- % decrease, tibial score zone 2 [2, 5]: 42%
- % decrease, bone score ([2]; tacrolimus 30 ng i.a.): 19%
- % decrease, depth ratio mean ([2]; tacrolimus 30 ng i.a.): 15%
- % decrease, depth ratio zone 2 ([2]; tacrolimus 30 ng i.a.): 50%
- % decrease, femoral cartilage degeneration score ([2]; tacrolimus 30 ng i.a.): 25%
- % decrease, osteophyte measure ([2]; tacrolimus 30 ng i.a.): 3%
- % decrease, osteophyte score ([2]; tacrolimus 30 ng i.a.): 6%
- % decrease, substantial degeneration width ([2]; tacrolimus 30 ng i.a.): 11%
- % decrease, tibial score 3-zone total ([2]; tacrolimus 30 ng i.a.): 15%
- % decrease, tibial score zone 1 ([2]; tacrolimus 30 ng i.a.): 6%
- % decrease, tibial score zone 2 ([2]; tacrolimus 30 ng i.a.): 35%
- % decrease, tibial score zone 3 ([2]; tacrolimus 30 ng i.a.): 0%
- % decrease, total degeneration width ([2]; tacrolimus 30 ng i.a.): 10%
- % decrease, total joint score ([2]; tacrolimus 30 ng i.a.): 13%
- % decrease, total joint score w/o femur ([2]; tacrolimus 30 ng i.a.): 12%
